# Results as given in ChEMBL document CHEMBL3867456, “Vetiverianines A, B, and C: Sesquiterpenoids from Vetiveria zizanioides Roots” (J Nat Prod, 2016).
# Assay: Cytotoxicity against human HL60 cells assessed as cell growth inhibition after 72 hrs by MTT assay
# Format: functional, cell-based
# Conditions: HL-60, 72 h
compound,measurement,value
C[C@@H]1CCC=C2CC[C@]3(C[C@]21C)O[C@]3(C)CO,IC50,57.7 µM
COc1cc([C@@H]2c3cc4c(cc3[C@@H](O[C@@H]3O[C@@H]5CO[C@@H](C)O[C@H]5[C@H](O)[C@H]3O)[C@H]3COC(=O)[C@H]23)OCO4)cc(OC)c1O [ETOPOSIDE],IC50,0.3 µM
